Assay results taken from patent publication US6989371B1, “Bombesin analogs for treatment of cancer” (Dabur Research Foundation, priority 1996, dated 2006).
Non-standard residues stand in square brackets, D forms with d. Residues, ends and D or L forms follow the SMILES beside them. Aib = CC(C)(N)C(=O)O

Columns and labels:
PTC (colon) = test: two day MTT cytotoxicity assay (Example 12); format: cell-based, human; conditions: 48 hrs
Description: (§1) The cytoxicity of the peptide analog was carried out by two day MTT [3-(4,5-dimethylthiazol-2-yl)-2,5-diphenyl tetrazolium bromide]assay. MTT assay is based on the principle of uptake of MTT, a tetrazolium salt, by metabolically active cells where it is metabolized by active mitochondria into a blue colored formazon product, which can be read spectrometrically (J. of Immunological Methods 65: 55–63, 1983). To prepare the MTT stock solution needed, MTT was dissolved in phosphate buffered saline with a pH of 7.4 to obtain an MTT concentration of 5 mg/ml; the resulting mixture was filtered through a 0.22 micron filter to sterilize and remove a small amount of insoluble residue. This filtered mixture was the MTT stock solution.
(§2) Briefly, for each tumor type, 10,000 cells were seeded in 96-well tissue culture plate and incubated with each peptide concentration individually in a CO2 incubator for 48 hrs. The peptide analog at different concentrations was added once every 24 hrs during the incubation period. Control cultures, which were not treated with the peptide was similarly incubated. The assay was terminated by adding 100 μg (20 μl) of MTT to each well, incubating for three hours, decanting supernatant and finally adding 150 μl of dimethylsulphoxide to each well to dissolve the formazon. The plates were incubated for 15 minutes at 37° C. and read spectrophotometrically at 540 nm; and cytotoxicity percentage was calculated by following formula: • Cytotoxicity Percentage=100×[1−X/R1], • where X=(absorbance of the treated sample at 540 nm-absorbance of a blank at 540 nn) and • R1=(absorbance of the untreated control at 540 nm)—(absorbance of the blank at 540 nm).
(§3) Thus in each of the MTT cytotoxicity assay the percentage was calculated according to the above formula and was based on the proliferation of the untreated controls, the value of which was considered as 100°0.
(§4) The biological activity of synthesized peptide SEQ ID NO:3 was tested on different human tumor cell lines such as HT-29 & PTC (colon), A549 (non small lung cell), KB (oral squamous cell), MCF7 & MDA.MB.453 (Breast), HuTu80 (duodenum), PA-1 (ovary), MOLT-4 (leukemia) and MlAPaCa2 (Pancreas) at various molar concentrations.

KB (oral squamous cell) = test: two day MTT cytotoxicity assay (Example 12); format: cell-based, human; conditions: 48 hrs
Description: as §1, §2, §3, §4

MDA.MB.453 (Breast) = test: two day MTT cytotoxicity assay (Example 12); format: cell-based, human
Description: as §1, §2, §3, §4

MlAPaCa2 (Pancreas) = test: two day MTT cytotoxicity assay (Example 12); format: cell-based, human
Description: as §1, §2, §3, §4

MOLT-4 (leukemia) = test: two day MTT cytotoxicity assay (Example 12); format: cell-based, human
Description: as §1, §2, §3, §4

PA-1 (ovary) = test: two day MTT cytotoxicity assay (Example 12); format: cell-based, human
Description: as §1, §2, §3, §4

HuTu80 (duodenum) = test: two day MTT cytotoxicity assay (Example 12); format: cell-based, human
Description: as §1, §2, §3, §4

MCF7 (Breast) = test: two day MTT cytotoxicity assay (Example 12); format: cell-based, human
Description: as §1, §2, §3, §4

HT-29 (colon) = test: two day MTT cytotoxicity assay (Example 12); format: cell-based, human
Description: as §1, §2, §3, §4

[1] = test system: A549 (non small lung cell); test: two day MTT cytotoxicity assay (Example 12); format: cell-based, human
Description: as §1, §2, §3, §4

[2] = test system: human gastric cancer cell line Hs746T xenografts; conditions: nude mice bearing Hs746T xenografts; cited from earlier work
[3] = test system: MCF-7 MIII human breast cancer cell line xenografts; conditions: MCF-7 MIII xenografts, female athymic nude mice, after 2 weeks of treatment, alone or in combination with SB-75; cited from earlier work
intact SCLC cells = conditions: 37° C., RPMI medium, 0–1080 minutes; cited from earlier work
SCLC xenograft = conditions: in vivo; cited from earlier work

CC(C)C[C@H](NC(=O)[C@H](Cc1c[nH]cn1)NC(=O)C(C)(C)NC(=O)[C@@H](NC(=O)[C@H](C)NC(=O)[C@H](Cc1c[nH]c2ccccc12)NC(=O)[C@H](CCC(N)=O)NC(=O)[C@H](N)Cc1ccccc1)C(C)C)C(N)=O [SEQ ID NO: 3, D-Phe-Gln-Trp-Ala-Val-Aib-His-Leu-NH2] (H-[dF]QWAV[Aib]HL-NH2; N-terminus assumed)
Percentage cytotoxicity (PTC (colon); 10 pM): 80.0 ± 7.1%
Percentage cytotoxicity (PTC (colon); 100 pM): 26.5 ± 3.8%
Percentage cytotoxicity (PTC (colon); 10 nM): 27.7 ± 3.6%
Percentage cytotoxicity (PTC (colon); 100 nM): 27.7 ± 2.8%
Percentage cytotoxicity (PTC (colon); 1 μM): 17.9 ± 2.5%
Percentage cytotoxicity (PTC (colon)): 23.8 ± 2.8%
Percentage cytotoxicity (KB (oral squamous cell); 10 pM): 40.9 ± 5.5%
Percentage cytotoxicity (KB (oral squamous cell); 100 pM): 26.4 ± 4.5%
Percentage cytotoxicity (KB (oral squamous cell); 10 nM): 30.9 ± 5.5%
Percentage cytotoxicity (KB (oral squamous cell); 100 nM): 31.6 ± 6.5%
Percentage cytotoxicity (KB (oral squamous cell); 1 μM): 32.1 ± 5.0%
Percentage cytotoxicity (KB (oral squamous cell)): 30.4 ± 6.5%
Percentage cytotoxicity (MDA.MB.453 (Breast); MDA.MB.453, 10 pM, 48 hrs): 49.5 ± 4.2%
Percentage cytotoxicity (MDA.MB.453 (Breast); MDA.MB.453, 100 pM, 48 hrs): 25.5 ± 2.9%
Percentage cytotoxicity (MDA.MB.453 (Breast); MDA.MB.453, 10 nM, 48 hrs): Nil
Percentage cytotoxicity (MDA.MB.453 (Breast); MDA.MB.453, 100 nM, 48 hrs): 11.2 ± 3.1%
Percentage cytotoxicity (MDA.MB.453 (Breast); MDA.MB.453, 1 μM, 48 hrs): 5.6 ± 3.5%
Percentage cytotoxicity (MDA.MB.453 (Breast); MDA.MB.453, 48 hrs): 9.6 ± 1.9%
Percentage cytotoxicity (MlAPaCa2 (Pancreas); MIAPaCa2, 10 pM, 48 hrs): 27.4 ± 4.5%
Percentage cytotoxicity (MlAPaCa2 (Pancreas); MIAPaCa2, 100 pM, 48 hrs): 28.2 ± 4.5%
Percentage cytotoxicity (MlAPaCa2 (Pancreas); MIAPaCa2, 10 nM, 48 hrs): 33.2 ± 6.7%
Percentage cytotoxicity (MlAPaCa2 (Pancreas); MIAPaCa2, 100 nM, 48 hrs): 30.3 ± 4.2%
Percentage cytotoxicity (MlAPaCa2 (Pancreas); MIAPaCa2, 1 μM, 48 hrs): 33.3 ± 4.5%
Percentage cytotoxicity (MlAPaCa2 (Pancreas); MIAPaCa2, 48 hrs): 36.4 ± 0.5%
Percentage cytotoxicity (MOLT-4 (leukemia); MOLT-4, 10 pM, 48 hrs): 49.9 ± 4.1%
Percentage cytotoxicity (MOLT-4 (leukemia); MOLT-4, 100 pM, 48 hrs): 15.9 ± 3.0%
Percentage cytotoxicity (MOLT-4 (leukemia); MOLT-4, 10 nM, 48 hrs): Nil
Percentage cytotoxicity (MOLT-4 (leukemia); MOLT-4, 100 nM, 48 hrs): 1.4 ± 1.0%
Percentage cytotoxicity (MOLT-4 (leukemia); MOLT-4, 1 μM, 48 hrs): 9.0 ± 1.2%
Percentage cytotoxicity (MOLT-4 (leukemia); MOLT-4, 48 hrs): 1.0 ± 0.4%
Percentage cytotoxicity (PA-1 (ovary); PA-1, 10 pM, 48 hrs): 37.7 ± 3.9%
Percentage cytotoxicity (PA-1 (ovary); PA-1, 100 pM, 48 hrs): 40.1 ± 6.2%
Percentage cytotoxicity (PA-1 (ovary); PA-1, 10 nM, 48 hrs): 25.4 ± 4.2%
Percentage cytotoxicity (PA-1 (ovary); PA-1, 100 nM, 48 hrs): 34.2 ± 5.8%
Percentage cytotoxicity (PA-1 (ovary); PA-1, 1 μM, 48 hrs): 31.2 ± 5.1%
Percentage cytotoxicity (PA-1 (ovary); PA-1, 48 hrs): 36.1 ± 6.1%
Percentage cytotoxicity (HuTu80 (duodenum); HuTu80, 10 pM, 48 hrs): 10.3 ± 3.5%
Percentage cytotoxicity (HuTu80 (duodenum); HuTu80, 100 pM, 48 hrs): 14.7 ± 4.2%
Percentage cytotoxicity (HuTu80 (duodenum); HuTu80, 10 nM, 48 hrs): 14.3 ± 3.5%
Percentage cytotoxicity (HuTu80 (duodenum); HuTu80, 100 nM, 48 hrs): 15.5 ± 4.7%
Percentage cytotoxicity (HuTu80 (duodenum); HuTu80, 1 μM, 48 hrs): 12.2 ± 4.0%
Percentage cytotoxicity (HuTu80 (duodenum); HuTu80, 48 hrs): 13.3 ± 4.0%
Percentage cytotoxicity (MCF7 (Breast); MCF 7, 10 pM, 48 hrs): 39.33 ± 2.6%
Percentage cytotoxicity (MCF7 (Breast); MCF 7, 100 pM, 48 hrs): 38.95 ± 4.5%
Percentage cytotoxicity (MCF7 (Breast); MCF 7, 10 nM, 48 hrs): 24.35 ± 5%
Percentage cytotoxicity (MCF7 (Breast); MCF 7, 100 nM, 48 hrs): Nil
Percentage cytotoxicity (MCF7 (Breast); MCF 7, 1 μM, 48 hrs): Nil
Percentage cytotoxicity (MCF7 (Breast); MCF 7, 48 hrs): 30.68 ± 6%
Percentage cytotoxicity (HT-29 (colon); HT29, 10 pM, 48 hrs): 18.7 ± 4.5%
Percentage cytotoxicity (HT-29 (colon); HT29, 100 pM, 48 hrs): 19.9 ± 5.5%
Percentage cytotoxicity (HT-29 (colon); HT29, 10 nM, 48 hrs): 11.8 ± 5.0%
Percentage cytotoxicity (HT-29 (colon); HT29, 100 nM, 48 hrs): 17.8 ± 4.5%
Percentage cytotoxicity (HT-29 (colon); HT29, 1 μM, 48 hrs): 25.4 ± 5.5%
Percentage cytotoxicity (HT-29 (colon); HT29, 48 hrs): 20.3 ± 4.5%
Percentage cytotoxicity ([1]; A549, 10 pM, 48 hrs): 30.5 ± 3.5%
Percentage cytotoxicity ([1]; A549, 100 pM, 48 hrs): 25.2 ± 3.5%
Percentage cytotoxicity ([1]; A549, 10 nM, 48 hrs): 32.2 ± 5.5%
Percentage cytotoxicity ([1]; A549, 100 nM, 48 hrs): 23.6 ± 4.5%
Percentage cytotoxicity ([1]; A549, 1 μM, 48 hrs): 30.7 ± 6.5%
Percentage cytotoxicity ([1]; A549, 48 hrs): 32.4 ± 4.5%

(DTpi6, Leu3, psi[CH2NH]—Leu14) bombesin (6–14) [RC-3095]
tumor growth [2]: effectively inhibited tumor growth
tumor volume [3]: significant inhibition of tumor volume

[Psi 13, 14] Bombesin
TI/2 (stability to metabolic enzymes) (intact SCLC cells): 646 min
SCLC xenograft formation (SCLC xenograft): inhibited SCLC xenograft formation in vivo in a dose-dependent manner
